{
  "source": "patent US12083191B2",
  "about": "“Composition and methods for imaging cells” (CASE WESTERN RESERVE UNIVERSITY, priority 2009, dated 2024)",
  "assay": "solution-based β-gal activity assay (ONPG hydrolysis)",
  "assay_type": "biochemical",
  "method": "For the solution-based activity assay, β-gal fragments were added, either individually or in complementing pairs, to uncoated 96-well microtiter assay plates in equal molar amounts and incubated at room temperature on an orbital rocker for 1 hr. Full-length β-gal (1 mg/ml) was serially diluted to create a standardized concentration curve. At time zero, the assay was initiated by using a 12-channel pipettor to add 20 μl of ONPG (4 mg/ml) to each well of the microplate. In the endpoint assay, the microplates were incubated at room temperature for the appropriate length of time, e.g., 30 min, before the reaction was terminated by the addition of 50 μl of 1 M Na2CO3. Then, the absorbance (420 nm) was read in a Tecan Infinite 200 plate reader (Tecan; San Jose, CA). The absorbance data was transferred to a Microsoft Excel spreadsheet and the amount of ONPG substrate hydrolyzed was calculated.\nTo test the ability of the split-fragments to spontaneously refold and aggregate into tetramers in solution, complementing pairs of β-gal fragments were combined and assessed in a solution-based activity assay. Levels of active β-gal expression were measured by its catalytic hydrolysis of ortho-nitrophenyl-β-D-galactopyranoside (ONPG), a synthetic chromogenic substrate, to orthonitrophenol (ONP), a yellow product (λmax=420 nm). […]",
  "data": [
    {"substance": "Full length β-gal: purified full length biotinylated E. coli β-galactosidase prepared in the laboratory, 135 kDa", "values": [
      {"measurement": "time at which optimally active", "setting": "19 hour incubation period, FIG. 7C", "value": 30, "unit": "min"},
      {"measurement": "enzyme activity versus commercially available purchased β-gal", "setting": "increasing amounts of enzyme, FIG. 7A", "value": "virtually identical"}
    ]}
  ]
}
